Laboratory results reported in ChEMBL document CHEMBL5325442, “Diterpenoids and Their Glycosides from the Stems of Tinospora crispa with Beta-Cell Protective Activity” (2023).
The source made the active and inactive calls. The calls are words filed in the database; no cut-off is given here.

Key:
Format in all cases: functional
[1] = tested on: BRIN-BD11; experiment: Protection against dexamethasone-induced cytotoxicity in rat BRIN-BD11 cells assessed as increase in cell viability at 50 uM incubated for 48 hrs by WST-1 reagent based assay
[2] = tested on: BRIN-BD11; experiment: Protection against dexamethasone-induced cell cycle arrest in rat BRIN-BD11 cells assessed as restoration of dexamethasone-induced increase in G1 phase cells at 50 uM incubated for 48 hrs by RNase A staining based FACS analysis
[3] = tested on: BRIN-BD11; experiment: Protection against dexamethasone-induced cytotoxicity in rat BRIN-BD11 cells assessed as increase in cell viability incubated for 48 hrs by WST-1 reagent based assay; conditions: dose <= 50.0 µM
[4] = tested on: BRIN-BD11; experiment: Protection against dexamethasone-induced cell cycle arrest in rat BRIN-BD11 cells assessed as restoration of dexamethasone-induced decrease in S phase cells at 50 uM incubated for 48 hrs by RNase A staining based FACS analysis
[5] = tested on: BRIN-BD11; experiment: Protection against dexamethasone-induced cell cycle arrest in rat BRIN-BD11 cells assessed as restoration of dexamethasone-induced decrease in G2/M phase cells at 50 uM incubated for 48 hrs by RNase A staining based FACS analysis
[6] = tested on: BRIN-BD11; experiment: Protection against dexamethasone-induced cytotoxicity in rat BRIN-BD11 cells assessed as increase in cell viability at 400 uM incubated for 48 hrs by WST-1 reagent based assay

Row | SMILES | Activity [1] | Activity [2] | Activity [3] | Activity [4] | Activity [5] | Activity [6]
1 | COC(=O)C1=CCC[C@H]2[C@](C)(C[C@H](O[C@@H]3O[C@H](CO)[C@@H](O)[C@H](O)[C@H]3O)[C@@]3(O)[C@H](OC)O[C@H](OC)[C@H]3O)[C@H]3C[C@H](OC3=O)[C@@]12C | inactive |  |  |  |  | 
2 | C[C@]12C[C@@H](c3ccoc3)OC(=O)[C@H]1CC[C@]1(C)[C@H]2[C@H]2C=C[C@]1(O[C@@H]1O[C@H](CO)[C@@H](O)[C@H](O)[C@H]1O)C(=O)O2 | Active | inactive | Dose-Dependent Effect | inactive | inactive | 
3 | COC(=O)C1=CCC[C@H]2[C@]3(C)C[C@@H](c4ccoc4)OC(=O)[C@@H]3C[C@H](O[C@@H]3O[C@H](CO)[C@@H](O)[C@H](O)[C@H]3O)[C@@]12C |  | inactive | Dose-Dependent Effect | inactive | inactive | 
4 | COC(=O)C1=CCC[C@@H]2[C@](C)(CC(O[C@@H]3O[C@H](CO[C@@H]4O[C@H](CO)[C@@H](O)[C@H](O)[C@H]4O)[C@@H](O)[C@H](O)[C@H]3O)C3=CC(OC)OC3=O)[C@H]3C[C@H](OC3=O)[C@]12C (some centres not stated) | Active | inactive |  | inactive | inactive | 
5 | COC(=O)C1=C[C@H](O)C[C@H]2[C@]3(C)C[C@@H](c4ccoc4)OC(=O)[C@H]3C[C@H](O[C@@H]3O[C@H](CO)[C@@H](O)[C@H](O)[C@H]3O)[C@@]12C |  |  | Active |  |  | 
6 | COC(=O)C1=CCC[C@H]2[C@](C)(CC(O[C@@H]3O[C@H](CO)[C@@H](O)[C@H](O)[C@H]3O)c3ccoc3)[C@H]3C[C@H](OC3=O)[C@@]12C (some centres not stated) | Active | inactive | Dose-Dependent Effect | inactive | inactive | 
7 | CCCCNC(=O)NS(=O)(=O)c1ccc(C)cc1 |  |  |  |  |  | Active
8 | COC(=O)C1=CCC[C@H]2[C@]3(C)C[C@@H](C4=CC(O)OC4=O)OC(=O)[C@@H]3C[C@@H](O[C@@H]3O[C@H](CO)[C@@H](O)[C@H](O)[C@H]3O)[C@@]12C (some centres not stated) | Active |  |  |  |  | 
9 | COC(=O)C1=CCC[C@H]2[C@](C)(C[C@@H](O[C@@H]3O[C@H](CO[C@@H]4O[C@H](CO)[C@@H](O)[C@H](O)[C@H]4O)[C@@H](O)[C@H](O)[C@H]3O)c3ccoc3)[C@H]3C[C@H](OC3=O)[C@@]12C | Active | inactive |  | inactive | inactive | 
10 | C[C@@]12C[C@@H](c3ccoc3)OC(=O)[C@@H]1C[C@@H]1OC(=O)[C@@]3(O)[C@@H](O[C@@H]4O[C@H](CO)[C@@H](O)[C@H](O)[C@H]4O)CC[C@@H]2[C@@]13C |  |  | Active |  |  | 
11 | COC(=O)C1=CCC[C@@H]2[C@](C)(CC(O[C@@H]3O[C@H](CO)[C@@H](O)[C@H](O)[C@H]3O)C3=CC(O)OC3=O)[C@H]3C[C@H](OC3=O)[C@]12C (some centres not stated) |  |  | Active |  |  | 
12 | COC(=O)C1=C[C@H](O)C[C@H]2[C@]3(C)C[C@@H](c4ccoc4)OC(=O)[C@@H]3C[C@@H](O[C@@H]3O[C@H](CO)[C@@H](O)[C@H](O)[C@H]3O)[C@@]12C |  |  | Active |  |  | 
13 | COC(=O)C1=C[C@H](O)C[C@@H]2[C@@]1(C)[C@@H](O[C@@H]1O[C@H](CO)[C@@H](O)[C@H](O)[C@H]1O)C=C1C(=O)O[C@H](c3ccoc3)C[C@]12C | Active | inactive | Dose-Dependent Effect | inactive | inactive | 
14 | COC(=O)C1=CCC[C@H]2[C@]3(C)C[C@@H](C4=C[C@H](OC)OC4=O)OC(=O)[C@@H]3CC(O[C@@H]3O[C@H](CO)[C@@H](O)[C@H](O)[C@H]3O)[C@@]12C (some centres not stated) |  |  | Active |  |  | 
15 | COC(=O)C1=CCC[C@H]2[C@]3(C)C[C@@H](c4ccoc4)OC(=O)C3=CC(O[C@@H]3O[C@H](CO)[C@@H](O)[C@H](O)[C@H]3O)[C@@]12C (some centres not stated) |  |  | Active |  |  | 
16 | COC(=O)C1=C[C@H](O)C[C@H]2[C@](C)(C[C@H](O[C@@H]3O[C@H](CO)[C@@H](O)[C@H](O)[C@H]3O)c3ccoc3)[C@H]3C[C@H](OC3=O)[C@@]12C | Active | inactive | Dose-Dependent Effect | inactive | inactive | 
17 | C[C@@]12C[C@@H](c3ccoc3)OC(=O)[C@@H]1C[C@@H](O[C@@H]1O[C@H](CO)[C@@H](O)[C@H](O)[C@H]1O)[C@@]13COC(=O)C1=CCC[C@@H]23 |  |  | Active |  |  | 
18 | C[C@@]1(CC(=O)O)[C@@H](C(=O)O)C[C@H]2OC(=O)C3=CCC[C@@H]1[C@]32C | inactive |  |  |  |  | 
19 | COC(=O)C1=CCC[C@H]2[C@]3(C)C[C@@H](C4=CC(=O)OC4O)OC(=O)[C@@H]3C[C@@H](O[C@@H]3O[C@H](CO)[C@@H](O)[C@H](O)[C@H]3O)[C@@]12C (some centres not stated) | Active | inactive |  | inactive | inactive | 
